Values quoted from earlier work, collected in paper PMC9516332 (Frontiers in Oncology, 2022).
Read-outs that look alike come from different tables or passages of the source.

What was measured:
Details in all cases: cited from earlier work
[1] = biological target: panel of 255 wild-type kinases (Homo sapiens, UniProt O43683)
[2] = biological target: panel of 255 wild-type kinases (Homo sapiens, UniProt O95819)
[3] = biological target: panel of 255 wild-type kinases (Homo sapiens, UniProt P06493)
[4] = biological target: panel of 255 wild-type kinases (Homo sapiens, UniProt P08631)
[5] = biological target: panel of 255 wild-type kinases (Homo sapiens, UniProt P51812)
[6] = biological target: panel of 255 wild-type kinases (Homo sapiens, UniProt Q00526)
[7] = biological target: T1, panel of 255 wild-type kinases (Homo sapiens, UniProt Q12851)
T1 sequence (Q12851 1-820): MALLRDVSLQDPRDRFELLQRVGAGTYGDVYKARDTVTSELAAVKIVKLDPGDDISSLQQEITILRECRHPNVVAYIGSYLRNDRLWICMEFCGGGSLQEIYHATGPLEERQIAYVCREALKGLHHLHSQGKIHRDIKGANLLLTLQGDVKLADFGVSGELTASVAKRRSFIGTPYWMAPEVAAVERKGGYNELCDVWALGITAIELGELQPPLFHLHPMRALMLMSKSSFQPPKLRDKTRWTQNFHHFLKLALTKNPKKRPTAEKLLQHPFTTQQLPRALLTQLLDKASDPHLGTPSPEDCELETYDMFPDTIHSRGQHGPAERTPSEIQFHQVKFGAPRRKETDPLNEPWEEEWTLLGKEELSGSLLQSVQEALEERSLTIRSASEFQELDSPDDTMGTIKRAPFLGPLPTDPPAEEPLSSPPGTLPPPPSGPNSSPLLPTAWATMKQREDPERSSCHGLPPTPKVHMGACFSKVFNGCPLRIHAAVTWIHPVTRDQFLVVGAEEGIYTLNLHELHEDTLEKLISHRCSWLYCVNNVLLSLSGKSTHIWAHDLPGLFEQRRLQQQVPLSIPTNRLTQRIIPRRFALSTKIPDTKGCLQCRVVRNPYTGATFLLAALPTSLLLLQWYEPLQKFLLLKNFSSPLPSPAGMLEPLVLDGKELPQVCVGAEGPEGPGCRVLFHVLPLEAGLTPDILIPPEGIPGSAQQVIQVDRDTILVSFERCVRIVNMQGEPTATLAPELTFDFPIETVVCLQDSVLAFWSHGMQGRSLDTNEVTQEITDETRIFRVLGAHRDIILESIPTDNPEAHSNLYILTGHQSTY

[8] = biological target: panel of 255 wild-type kinases (Homo sapiens, UniProt Q13627)
[9] = biological target: panel of 255 wild-type kinases (Homo sapiens, UniProt Q14012)
[10] = biological target: panel of 255 wild-type kinases (Homo sapiens, UniProt Q15418)
[11] = biological target: panel of 255 wild-type kinases (Homo sapiens, UniProt Q16512)
[12] = biological target: panel of 255 wild-type kinases (Homo sapiens, UniProt Q16539)
[13] = biological target: panel of 255 wild-type kinases (Homo sapiens, UniProt Q9H0K1)
[14] = biological target: panel of 255 wild-type kinases (Homo sapiens, UniProt Q9P0L2)
[15] = biological target: panel of 255 wild-type kinases (Homo sapiens, UniProt Q9UM73)
[16] = biological target: panel of 255 wild-type kinases (Homo sapiens, UniProt Q9Y6E0)
[17] = BUB1/BUB3 kinase assay, 1 µmol/L single concentration, ref DOI: 10.1158/1535-7163.MCT-18-0877
[18] = kinase HGK, 1 µmol/L single concentration, ref DOI: 10.1158/1535-7163.MCT-18-0877
[19] = CDC2/CycB1 kinase assay, 1 µmol/L single concentration, ref DOI: 10.1158/1535-7163.MCT-18-0877
[20] = kinase HCK, 1 µmol/L single concentration, ref DOI: 10.1158/1535-7163.MCT-18-0877
[21] = kinase RSK2, 1 µmol/L single concentration, ref DOI: 10.1158/1535-7163.MCT-18-0877
[22] = CDK3/CycE1 kinase assay, 1 µmol/L single concentration, ref DOI: 10.1158/1535-7163.MCT-18-0877
[23] = kinase MAP4K2, 1 µmol/L single concentration, ref DOI: 10.1158/1535-7163.MCT-18-0877
[24] = kinase DYRK1A, 1 µmol/L single concentration, ref DOI: 10.1158/1535-7163.MCT-18-0877
[25] = CaMK1α kinase assay, 1 µmol/L single concentration, ref DOI: 10.1158/1535-7163.MCT-18-0877
[26] = kinase RSK1, 1 µmol/L single concentration, ref DOI: 10.1158/1535-7163.MCT-18-0877
[27] = kinase PKN1, 1 µmol/L single concentration, ref DOI: 10.1158/1535-7163.MCT-18-0877
[28] = p38α, 1 µmol/L single concentration, ref DOI: 10.1158/1535-7163.MCT-18-0877
[29] = kinase QIK, 1 µmol/L single concentration, ref DOI: 10.1158/1535-7163.MCT-18-0877
[30] = MARK1, 1 µmol/L single concentration, ref DOI: 10.1158/1535-7163.MCT-18-0877
[31] = ALK kinase assay, 1 µmol/L single concentration, ref DOI: 10.1158/1535-7163.MCT-18-0877
[32] = MST3, 1 µmol/L single concentration, ref DOI: 10.1158/1535-7163.MCT-18-0877

For `CC#CC(=O)N1CCC[C@H]1c1nc(-c2ccc(C(=O)Nc3ccccn3)cc2)c2c(N)nccn12` [acalabrutinib], the “%-inhibition BUB1/BUB3” value [1, 17] is given as 5.51%, the “%-inhibition at 1 µmol/L, HGK” value [2, 18] is given as -1.42% and the “%-inhibition CDC2/CycB1” value [3, 19] is given as -0.397%. The “%-inhibition at 1 µmol/L, HCK” value [4, 20] was 0.452%, the “%-inhibition at 1 µmol/L, RSK2” value [5, 21] was 0.054% and the “%-inhibition CDK3/CycE1” value [6, 22] was -6%. The “%-inhibition at 1 µmol/L, MAP4K2” value [7, 23] was -11%, the “%-inhibition at 1 µmol/L, DYRK1A” value [8, 24] was -4.57% and the “%-inhibition CaMK1α” value [9, 25] was -4.29%. The “%-inhibition at 1 µmol/L, RSK1” value [10, 26] was 3.57%, the “%-inhibition at 1 µmol/L, PKN1” value [11, 27] was 11% and the “%-inhibition, p38α” value [12, 28] was -0.752%. The “%-inhibition at 1 µmol/L, QIK” value [13, 29] was -0.215%, the “%-inhibition, MARK1” value [14, 30] was -3.49% and the “%-inhibition ALK” value [15, 31] was 5.27%. The “%-inhibition, MST3” value [16, 32] was -2.52%.

In the case of `COc1cc(N2CCC(N3CCN(C)CC3)CC2)ccc1Nc1ncc(Cl)c(Nc2ccccc2P(C)(C)=O)n1` [brigatinib], the “%-inhibition BUB1/BUB3” value [1] is listed as 14%, the “%-inhibition at 1 µmol/L, HGK” value [2] is listed as 18% and the “%-inhibition CDC2/CycB1” value [3] is listed as 61%. For the same molecule, the “%-inhibition at 1 µmol/L, HCK” value [4] was 78%, the “%-inhibition at 1 µmol/L, RSK2” value [5] was 97% and the “%-inhibition CDK3/CycE1” value [6] was 0.848%. The “%-inhibition at 1 µmol/L, MAP4K2” value [7] was 77%, the “%-inhibition at 1 µmol/L, DYRK1A” value [8] was 38% and the “%-inhibition CaMK1α” value [9] was 28%. The “%-inhibition at 1 µmol/L, RSK1” value [10] was 98%, the “%-inhibition at 1 µmol/L, PKN1” value [11] was 77% and the “%-inhibition, p38α” value [12] was -0.837%. The “%-inhibition at 1 µmol/L, QIK” value [13] was 100%, the “%-inhibition, MARK1” value [14] was 96% and the “%-inhibition ALK” value [15] was 100%. For the same molecule, the “%-inhibition, MST3” value [16] was 13%.

For `Cc1cc(Nc2ncc(Cl)c(Nc3ccccc3S(=O)(=O)C(C)C)n2)c(OC(C)C)cc1C1CCNCC1` [ceritinib], the “%-inhibition BUB1/BUB3” value [1, 17] is given as 5.67%, the “%-inhibition at 1 µmol/L, HGK” value [2, 18] is given as 10% and the “%-inhibition CDC2/CycB1” value [3, 19] is given as 2.5%. For the same molecule, the “%-inhibition at 1 µmol/L, HCK” value [4, 20] was 15%, the “%-inhibition at 1 µmol/L, RSK2” value [5, 21] was 83% and the “%-inhibition CDK3/CycE1” value [6, 22] was -3.17%. For the same molecule, the “%-inhibition at 1 µmol/L, MAP4K2” value [7, 23] was 7.37%, the “%-inhibition at 1 µmol/L, DYRK1A” value [8, 24] was 1.13% and the “%-inhibition CaMK1α” value [9, 25] was 37%. For the same molecule, the “%-inhibition at 1 µmol/L, RSK1” value [10, 26] was 75%, the “%-inhibition at 1 µmol/L, PKN1” value [11, 27] was 25% and the “%-inhibition, p38α” value [12, 28] was 1.8%. For the same molecule, the “%-inhibition at 1 µmol/L, QIK” value [13, 29] was 7.41%, the “%-inhibition, MARK1” value [14, 30] was 8.55% and the “%-inhibition ALK” value [15, 31] was 99%. For the same molecule, the “%-inhibition, MST3” value [16, 32] was 31%.

In the case of `O=C(c1ccc(F)c(F)c1Nc1ccc(I)cc1F)N1CC(O)([C@@H]2CCCCN2)C1` [cobimetinib], the “%-inhibition BUB1/BUB3” value [1, 17] is listed as 6.61%, the “%-inhibition at 1 µmol/L, HGK” value [2, 18] is listed as 2.27% and the “%-inhibition CDC2/CycB1” value [3, 19] is listed as -0.108%. The “%-inhibition at 1 µmol/L, HCK” value [4, 20] was -3.63%, the “%-inhibition at 1 µmol/L, RSK2” value [5, 21] was 6% and the “%-inhibition CDK3/CycE1” value [6, 22] was 2.16%. The “%-inhibition at 1 µmol/L, MAP4K2” value [7, 23] was -5.57%, the “%-inhibition at 1 µmol/L, DYRK1A” value [8, 24] was -5% and the “%-inhibition CaMK1α” value [9, 25] was 9%. For the same molecule, the “%-inhibition at 1 µmol/L, RSK1” value [10, 26] was 1.39%, the “%-inhibition at 1 µmol/L, PKN1” value [11, 27] was 19% and the “%-inhibition, p38α” value [12, 28] was -5.49%. The “%-inhibition at 1 µmol/L, QIK” value [13, 29] was 2.37%, the “%-inhibition, MARK1” value [14, 30] was -5% and the “%-inhibition ALK” value [15, 31] was 5%. For the same molecule, the “%-inhibition, MST3” value [16, 32] was 4.62%.

For `C=CC(=O)N1CCC[C@@H](n2nc(-c3ccc(Oc4ccccc4)cc3)c3c(N)ncnc32)C1` [ibrutinib], the “%-inhibition BUB1/BUB3” value [1, 17] is listed as 5%, the “%-inhibition at 1 µmol/L, HGK” value [2, 18] is listed as -0.0249% and the “%-inhibition CDC2/CycB1” value [3, 19] is listed as -1%. The “%-inhibition at 1 µmol/L, HCK” value [4, 20] was 100%, the “%-inhibition at 1 µmol/L, RSK2” value [5, 21] was 7.41% and the “%-inhibition CDK3/CycE1” value [6, 22] was 0.486%. For the same molecule, the “%-inhibition at 1 µmol/L, MAP4K2” value [7, 23] was -4.43%, the “%-inhibition at 1 µmol/L, DYRK1A” value [8, 24] was -3.54% and the “%-inhibition CaMK1α” value [9, 25] was 14%. For the same molecule, the “%-inhibition at 1 µmol/L, RSK1” value [10, 26] was 5.47%, the “%-inhibition at 1 µmol/L, PKN1” value [11, 27] was 9% and the “%-inhibition, p38α” value [12, 28] was -2.71%. The “%-inhibition at 1 µmol/L, QIK” value [13, 29] was 4.7%, the “%-inhibition, MARK1” value [14, 30] was 2.46% and the “%-inhibition ALK” value [15, 31] was 5.45%. The “%-inhibition, MST3” value [16, 32] was 8%.

For `C=CC(=O)Nc1cc(Nc2nccc(-c3cn(C)c4ccccc34)n2)c(OC)cc1N(C)CCN(C)C` [osimertinib], the “%-inhibition BUB1/BUB3” value [1, 17] is given as 11%, the “%-inhibition at 1 µmol/L, HGK” value [2, 18] is given as 80% and the “%-inhibition CDC2/CycB1” value [3, 19] is given as 23%. For the same molecule, the “%-inhibition at 1 µmol/L, HCK” value [4, 20] was 0.0489%, the “%-inhibition at 1 µmol/L, RSK2” value [5, 21] was 42% and the “%-inhibition CDK3/CycE1” value [6, 22] was 22%. For the same molecule, the “%-inhibition at 1 µmol/L, MAP4K2” value [7, 23] was -0.698%, the “%-inhibition at 1 µmol/L, DYRK1A” value [8, 24] was 0.712% and the “%-inhibition CaMK1α” value [9, 25] was 10%. The “%-inhibition at 1 µmol/L, RSK1” value [10, 26] was 42%, the “%-inhibition at 1 µmol/L, PKN1” value [11, 27] was 14% and the “%-inhibition, p38α” value [12, 28] was -6%. For the same molecule, the “%-inhibition at 1 µmol/L, QIK” value [13, 29] was 33%, the “%-inhibition, MARK1” value [14, 30] was 19% and the “%-inhibition ALK” value [15, 31] was 99%. The “%-inhibition, MST3” value [16, 32] was 5.71%.
